According to patent US20210188773A1, “NOVEL POLYMOPHS OF S-NITROSOCAPTOPRIL (CAP-NO) AND ITS PROCESS FOR PREPARATION” (FUZHOU UNIVERSITY, priority 2018, published 2021):

Tested on: Pulmonary hypertension (PAH) rats
Test: Effect on monocrotaline (MCT) pulmonary hypertension (PAH) model rats
Type: in vivo, rat
Procedure: Pulmonary hypertension (PAH) rats, being monocrotaline (MCT) intraperitoneal injected, were divided into 4 groups: control group (n=7), 50 mg/kg captopril group (n=7), 10 mg/kg S-nitrosocaptopril group (n=7), 50 mg/kg S-nitrosocaptopril group (n=7) and health group (n=9). Rats of all groups were orally administered once a day for 30 days.

C[C@H](CS)C(=O)N1CCC[C@H]1C(=O)O [captopril, Captopril]
average pleural effusion of dead rats (50 mg/kg oral once a day): 3.3 mL | mean right ventricular mass index (RVMI) (50 mg/kg oral once a day): 53.8% | number of rats remaining (from 7) (50 mg/kg oral once a day for 30 days): 3
